This note sets out measurements from ChEMBL document CHEMBL4152297, “Ligand-selective small molecule modulators of the constitutively active vGPCR US28” (Eur J Med Chem, 2018).

Common to all, as to assay type: cell-based
Test [1] has as its system HEK293. The test can be described thus: Displacement of [125I]-CCL2 from HCMV US28 expressed in HEK293 cells at 10 uM after 3 hrs by gamma counting method relative to control. Conditions: Human betaherpesvirus 5.
Test [2] in a line: Modulation of basal activity of HCMV US28 expressed in tetracyclin-induced HEK293 cells assessed as change in inositol phosphate accumulation using [3H]-myo-inositol by scintillation proximity assay. Particulars: Human betaherpesvirus 5, HEK293.
Test [3] is described as follows: Modulation of basal activity of HCMV US28 delta300 mutant expressed in tetracyclin-induced HEK293 cells assessed as change in inositol phosphate accumulation using [3H]-myo-inositol by scintillation proximity assay. Conditions: Human betaherpesvirus 5, HEK293.
Test [4] relates to HEK293. The test can be described thus: Modulation of basal activity of HCMV US28 expressed in tetracyclin-induced HEK293 cells assessed as change in inositol phosphate accumulation at 10 uM using [3H]-myo-inositol by scintillation proximity assay relative to control. Particulars: Human betaherpesvirus 5.
Test [5] relates to HEK293. The test can be described thus: Displacement of [125I]-CX3CL1 from HCMV US28 expressed in HEK293 cells at 10 uM after 3 hrs by gamma counting method relative to control. Conditions: Human betaherpesvirus 5.
The nature of test [6]: Inverse agonist activity at HCMV US28 expressed in African green monkey COS7 cells assessed as inhibition of inositol phosphate accumulation using [3H]-myo-inositol by liquid scintillation counting method. Particulars: Human betaherpesvirus 5, COS-7.
Test [7] deals with HEK293. Briefly: Modulation of basal activity of HCMV US28 delta300 mutant expressed in tetracyclin-induced HEK293 cells assessed as change in inositol phosphate accumulation at 10 uM using [3H]-myo-inositol by scintillation proximity assay relative to control. Conditions: Human betaherpesvirus 5.
Test [8] has as its system HEK293. Briefly: Displacement of [125I]-CCL4 from HCMV US28 expressed in HEK293 cells at 10 uM after 3 hrs by gamma counting method relative to control. Particulars: Human betaherpesvirus 5.

Active and inactive are the calls of the source. The calls are words filed in the database; no cut-off is given here.

Turning to `N#CC(CCCN1CCC(O)(c2ccc(Cl)cc2)CC1)(c1ccccc1)c1ccccc1` [BERLEX COMPOUND], the Efficacy was 60% with HEK293 [1], -31% in the test with HEK293 [4] and 99% in the test on HEK293 [7]. In addition, the EC50 in test [2] (read-out: EC50) is 10 µM; in test [2] (read-out: pEC50 (converted)), 10 µM; in test [3] (read-out: EC50), 0.86 µM; in test [3] (read-out: pEC50 (converted)) it was 0.794 µM; in test [6], 3.5 µM. The inhibition result with HEK293 [5] was “inactive”. Further, the inhibition in the test on HEK293 [8] amounted to 65%.
